Reference: patent publication US9913831B2, “Methods and compositions for treating nephrogenic diabetes insipidus” (UNIVERSITY OF UTAH RESEARCH FOUNDATION, priority 2011, dated 2018)

Tests used:
lithium-treated rats = test: Effect of clopidogrel on lithium-induced alterations in rats (natriuresis, urinary nitrates/nitrites, hematocrit, body and kidney weight); details: 2 weeks
Protocol: (§1) Animal experiments: Male Sprague-Dawley rats were purchased from Charles River (Wilmington, Mass., USA), and Brattleboro mutant rats that lack AVP (HsdBlu:BRAT-Avp^di) were obtained from the Rat Resource & Research Center (RRRC), University of Missouri, Columbia, Mo., USA. Mice (B6D2 genetic background) were bred in-house. […] Lithium-added chow (40 mmol Li/kg chow) was custom prepared (MP Biomedicals, Aurora, Ohio, USA). Clopidogrel bisulfate was administered orally by powdering and dissolving Plavix® tablets (Bristol-Myers Squibb, New York, N.Y., USA) in drinking water. The concentration of the drug in the drinking water was adjusted daily based on the water consumption of the animals the previous day. The clopidogrel dose used in Sprague-Dawley rats (20 mg/kg bw/day) was the same as used by other investigators (de La Crux et al, 2003; Graciano et al, 2008). In mice, clopidogrel was administered at a dose of 80 mg/kg bw/day. When compared with the human clinical dose of Plavix®, and adjusted to the Km factor (ratio of body surface area to body weight) of the species (man vs. rat or mouse) (Reagan-Shaw et al, 2007), the doses used in rats or mice were 2.5- and 5-fold higher, respectively. […] A higher dose of clopidogrel (40 mg/kg bw/day) was used in Brattleboro rats to ensure an unequivocal outcome whether positive or negative. Twenty-four hour urine samples were collected by placing the animals in the appropriate metabolic cages designed for rats and mice. Blood and kidney tissues were collected at necropsy. Cortical, outer and inner medullary regions of the kidneys were dissected out and processed for laboratory assays.
(§2) Blood, urine and tissue analysis: Osmolalities of clear urine samples were measured by vapor pressure method (Wescor, Logan, Utah, USA). Microhematocrit was determined by centrifuging free-flowing blood collected in heparinized capillary tubes in a microhematocrit centrifuge (Clay Adams, Parsippany, N.J., USA). Urinary excretion of AVP was quantified by a commercial ELISA kit (Enzo Life Sciences, Farmingdale, N.Y., USA). Total nitrate/nitrite contents of urine samples were determined by a commercial kit (Cayman Chemical, Ann Arbor, Mich.).Na, Li and K levels in serum and/or urine were determined on EasyElectrolyte® (Medica Corp., Bedford, Mass., USA). Based on serum and urine analysis, electrolyte-free clearance [CH20(e)] was computed using the formula CH20(e)=V((1−UNa+UK)/PNa), where V=urine volume, UNa and UK are urine Na and K, and PNa is plasma Na, respectively (Schrier 2006). Lithium levels in inner medullary tissue homogenates were assayed by Inductively Coupled Plasma-Mass Spectrometry (ICPMS) by Exova (Santa Fe Springs, Calif., USA), and were normalized to their respective protein contents.
Statistical Analysis: All quantitative data are expressed as mean±standard error (SE). Comparisons among the means of multiple groups were made by one-way analysis of variance (ANOVA), followed by the assessment of statistical significance by Tukey-Kramer Multiple Comparison Test or Student-Newman-Keuls Multiple Comparison Test. Differences between the means of two groups were determined by unpaired t test or where applicable, by Mann-Whitney nonparametric test. P values less than 0.05 were considered significant. GraphPad Instat® (GraphPad Software, Inc., La Jolla, Calif.) was used for statistical analysis.

Sprague-Dawley rats = tested on: Sprague-Dawley rats
Protocol: (§3) Animal experiments: Male Sprague-Dawley rats were purchased from Charles River (Wilmington, Mass., USA), and Brattleboro mutant rats that lack AVP (HsdBlu:BRAT-Avpdi) were obtained from the Rat Resource & Research Center (RRRC), University of Missouri, Columbia, Mo., USA. Mice (B6D2 genetic background) were bred in-house. […] Lithium-added chow (40 mmol Li/kg chow) was custom prepared (MP Biomedicals, Aurora, Ohio, USA). Clopidogrel bisulfate was administered orally by powdering and dissolving Plavix® tablets (Bristol-Myers Squibb, New York, N.Y., USA) in drinking water. The concentration of the drug in the drinking water was adjusted daily based on the water consumption of the animals the previous day. The clopidogrel dose used in Sprague-Dawley rats (20 mg/kg bw/day) was the same as used by other investigators (de La Crux et al, 2003; Graciano et al, 2008). In mice, clopidogrel was administered at a dose of 80 mg/kg bw/day. […]
Microhematocrit was determined by centrifuging free-flowing blood collected in heparinized capillary tubes in a microhematocrit centrifuge (Clay Adams, Parsippany, N.J., USA). Urinary excretion of AVP was quantified by a commercial ELISA kit (Enzo Life Sciences, Farmingdale, N.Y., USA). […]

AQP1 water channel = details: normal rats, clopidogrel 20 mg/kg bw/day 13 days
Protocol: (§4) Tissue samples were prepared and immnoblotted for semi-quantitative determination of protein abundances of P2Y12 receptor, and β-actin by the methods described previously (Zhang et al, ibid, 2008, 2009, 2010). Whole tissue homogenates were prepared in the presence of protease inhibitors, and the concentrations of proteins in the homogenates were determined, and solubilized in Laemmli buffer. Then the solubilized proteins were size fractionated on 12% SDS-polyacrylamide gels. Quality of tissue sample preparation and equality of protein loading were verified by staining parallel-run loading gels with Coomassie-blue (Gelcode Blue, Pierce Endogen, Rockford, Ill.). The size fractionated proteins were electrotransferred to nitrocellulose membranes, and blocked with buffer containing non-fat milk. Differences in protein loading were corrected by normalizing the band densities of the target proteins to that of β-actin (polyclonal antibody from Biolegend, San Diego, Calif., USA). After washing, the blocked membranes were incubated with rabbit polyclonal antibodies to either P2Y12 receptor (AnaSpec, Fremont, Calif.) or aquaporin-2 (AQP2; Zhang et al, ibid, 2008) or AQP1 (commercial source) or β-actin (Biolegend, San Diego, Calif.). Non-specific binding was prevented by incubation of the membranes with goat serum. Generation and characterization of AQP2 antibody (GN-762) was described previously (Kishore et al, 2000; Zhang et al, 2008). When peptide block was tested, prior to its use on the membranes the P2Y12 receptor antibody was pre-adsorbed by incubation with the blocking peptide as per the instructions of the supplier (AnaSpec, Fremont, Calif.). After washing off the primary antibodies, the nitrocellulose membranes were incubated with a peroxidase-conjugated secondary antibody to rabbit IgG (Dako North America, Carpinteria, Calif.). Chemiluminescence reaction was used to detect sites of antigen-antibody reactions (SuperSignal Substrate; Pierce Endogen, Rockford, Ill.), and captured on an X-ray film. Images were digitized and band densities were quantified by using Un-San-It software (Silk Scientific, Orem, Utah). The band densities of AQP2 were normalized by the band densities of β-actin. Mean values of relative band densities thus obtained for P2Y12 receptor were expressed as percent of the mean values obtained in the control group of animals.
(§5) Clopidogrel bisulfate was given orally to a group of Sprague-Dawley rats (n=4) for 13 days by dissolving powdered Plavix® tablets (75 mg base; Bristol-Myers Squibb/Sanofi, Bridgeport, N.J.) in drinking water, so that the rats consumed at least 20 mg of clopidogrel bisulfate base per kg body weight per day. The concentration of the drug in the drinking water was adjusted daily based on the water consumption of the rats the previous day. Another group of rats (n=4) was given plain water and this group served as controls.

[1] = tested on: AQP2 water channel protein; details: normal rats, clopidogrel 20 mg/kg bw/day in drinking water 13 days, vs control
Protocol: as §4, §5

P2Y12 receptor = details: normal rats, clopidogrel 20 mg/kg bw/day 13 days
Protocol: as §4, §5

[2] = tested on: lithium-induced polyuria in rats
Protocol: as §1, with “(HsdBlu:BRAT-Avpdi)” for “(HsdBlu:BRAT-Avp^di)”
as §2, with “Microhematocrit” for “Blood, urine and tissue analysis: Osmolalities of clear urine samples were measured by vapor pressure method (Wescor, Logan, Utah, USA). Microhematocrit”, “Total nitrate/nitrite contents of urine samples were determined by a commercial kit (Cayman Chemical, Ann Arbor, Mich.).Na, Li and K levels in serum and/or urine were determined on EasyElectrolyte® (Medica Corp., Bedford, Mass., USA).” left out

[3] = rats, lithium diet with clopidogrel vs lithium alone, ICPMS
Protocol: as §2, with “Microhematocrit” for “Blood, urine and tissue analysis: Osmolalities of clear urine samples were measured by vapor pressure method (Wescor, Logan, Utah, USA). Microhematocrit”, “Total nitrate/nitrite contents of urine samples were determined by a commercial kit (Cayman Chemical, Ann Arbor, Mich.).Na, Li and K levels in serum and/or urine were determined on EasyElectrolyte® (Medica Corp., Bedford, Mass., USA).” left out

[4] = tested on: lithium-induced polyuria in mice (B6D2 genetic background); details: lithium diet + clopidogrel 80 mg/kg bw/day 14 days vs LI alone, P<0.05 or better
Protocol: as §3, with “bw/day. When compared with the human clinical dose of Plavix®, and adjusted to the Km factor (ratio of body surface area to body weight) of the species (man vs. rat or mouse) (Reagan-Shaw et al, 2007), the doses used in rats or mice were 2.5- and 5-fold higher, respectively.” for “bw/day.”
The effect of administration of clopidogrel on lithium-induced polyuria was determined in mice (B6D2 genetic background). […]

AQP2 protein = details: mice, lithium diet + clopidogrel 80 mg/kg bw/day 14 days
Protocol: The effect of administration of clopidogrel on lithium-induced polyuria was determined in mice (B6D2 genetic background). Groups of mice were administered either a lithium-containing diet (40 mmol/kg chow; custom prepared by MP Biomedicals, Aurora, Ohio) or lithium-containing diet plus clopidogrel (80 mg per kg body weight per day in drinking water) for 14 days. Twenty-four urine samples were collected prior to the start of the treatment (day 0), on days 8 and 9, and days 13 and 14. The data plotted in the graphs represent the mean of the values obtained on the two consecutive days. Results are mean±SE; n=5 for LI alone group and n=6 for LI+CLPD group; ANOVA followed by Tukey Kramer Multiple Comparison Test.

Brattleboro mutant rats = details: Brattleboro rats lacking AVP, clopidogrel 40 mg/kg bw/day in drinking water 2 weeks
Protocol: as §3, with “(HsdBlu:BRAT-Avp^di)” for “(HsdBlu:BRAT-Avpdi)”, “day.” for “day. The clopidogrel dose used in Sprague-Dawley rats (20 mg/kg bw/day) was the same as used by other investigators (de La Crux et al, 2003; Graciano et al, 2008). In mice, clopidogrel was administered at a dose of 80 mg/kg bw/day.”
Blood, urine and tissue analysis: Osmolalities of clear urine samples were measured by vapor pressure method (Wescor, Logan, Utah, USA). Microhematocrit was determined by centrifuging free-flowing blood collected in heparinized capillary tubes in a microhematocrit centrifuge (Clay Adams, Parsippany, N.J., USA). Urinary excretion of AVP was quantified by a commercial ELISA kit (Enzo Life Sciences, Farmingdale, N.Y., USA). Total nitrate/nitrite contents of urine samples were determined by a commercial kit (Cayman Chemical, Ann Arbor, Mich.).Na, Li and K levels in serum and/or urine were determined on EasyElectrolyte® (Medica Corp., Bedford, Mass., USA). […]

[5] = tested on: ADP-activated P2Y12 receptor
rats = details: upto 4 weeks; cited from earlier work
[6] = rats, lithium treatment alone (40 mmol Li/kg chow)
[7] = rats, lithium + clopidogrel (40 mg/kg bw/day per FIG. 11 legend)
[8] = rats, lithium + clopidogrel (40 mg/kg bw/day per FIG. 12 legend)

SMILES: [Li] [Lithium, lithium]
- kidney weight as a percent of body weight (lithium-treated rats; lithium-treated rats with or without added clopidogrel): did not change
- gain in body weight (lithium-treated rats; [6]): significantly low
- terminal hematocrit (lithium-treated rats; [6]): significant elevation

SMILES: COC(=O)[C@H](c1ccccc1Cl)N1CCc2sccc2C1 [clopidogrel]
- urinary excretion of AVP (Sprague-Dawley rats; clopidogrel administration alone, rats): significantly increased
- urinary concentration (Sprague-Dawley rats; normal rats, clopidogrel 20 mg/kg bw/day in drinking water 13 days): Increased
- protein abundance of AQP1 water channel in the kidney (AQP1 water channel): did not appear to alter
- increase of AQP2 protein abundance in the inner medulla ([1]; P<0.002): 1.9 fold
- increase of AQP2 protein abundance in the cortex ([1]; P<0.02): 2.7 fold
- increase of AQP2 protein abundance in the outer medulla ([1]; P=0.24): not in the outer medulla
- protein abundance of P2Y12 receptor in the kidney (P2Y12 receptor): did not appear to alter
- solute-free water absorption (negative value) ([2]; clopidogrel administered alone): modestly increased
- lithium-induced urinary AVP levels ([2]; co-administration of clopidogrel with lithium): augmented
- lithium-induced polyuria ([2]; lithium diet 40 mmol/kg chow + clopidogrel 20 mg/kg/day, 13 days): significantly ameliorated
- lithium-induced solute-free water excretion (electrolyte-free water clearance, positive value) ([2]; lithium diet + clopidogrel 20 mg/kg/day, 13 days): effectively reversed
- accumulation of lithium in the inner medulla [3]: no effect
- water intake [4]: significant decrease
- lithium-induced decrease in AQP2 protein abundance in the renal medulla (AQP2 protein): significantly prevented
- urinary concentrating ability (Brattleboro mutant rats): did not increase
- lithium-induced increase in urinary NO3/NO2 (total nitrates/nitrites excretion) (lithium-treated rats; [7]): significantly ameliorated
- lithium-induced natriuresis (urinary sodium excretion) (lithium-treated rats; [7]): modest effect
- lithium-induced increase in terminal hematocrit (lithium-treated rats; [8]): reversed
- low gain in body weight due to lithium-treatment (lithium-treated rats; [8]): did not ameliorate
- development of AVP-resistant polyuria ([5]; lithium-treated rodents): blocked the development
- AVP in the urine (surrogate for plasma AVP levels) ([5]; rodents): increased
- aquaporin-2 (AQP2) water channel protein in the kidney ([5]; rodents): increased
- urinary concentration ([5]; rodents): significantly increased
- doses free from toxicity (rats): ≤ 165 mg/kg bw/day
